Where two headings read alike, the source gives them in different places.
Tests used:
K562 = experiment: CCK-8 cell proliferation and cytotoxicity assay, K562; type: cell-based, Human; conditions: read-out: Inhibitory concentration (IC50), K562
Ba/F3 Bcr-Abl/WT = biological target: T1, Ba/F3 Bcr-Abl/WT (Homo sapiens, UniProt P00519); experiment: CCK-8 assay, Ba/F3 Bcr-Abl/WT; type: cell-based; conditions: CCK-8, 72 h, imatinib mesylate sensitive; read-out: Inhibitory concentration (IC50), Ba/F3 Bcr-Abl/WT
T1 construct: fused on or other part: P11274 (Breakpoint cluster region protein)
Description: (§1) The cell lines described in Table 3 were used to test the antiproliferative activity of test compounds.
(§2) Cell Counting Kit-8 (CCK-8) allows very convenient assay by utilizing Dojindo's highly water-soluble tetrazolium salt. CCK-8, being nonradioactive, allows sensitive colorimetric assay for the determination of number of viable cells in cell proliferation and cytotoxicity assays. The amount of the formazan dye generated by dehydrogenases in cells is directly proportional to the number of living cells. Thus, the CCK-8 assay can also be substituted for the H^3-Thymidine incorporation assay.
(§3) Plates were further incubated at 37° C., 5% CO2 incubator for 72 h. 10 μl of the CCK-8 solution was added to each well and plate was incubated for 1-4 h in the incubator. Measured the absorbance at 450 nm using a microplate reader.
(§4) A. The percent inhibition and IC50 were calculated in comparison with control values.

Ba/F3 Bcr-Abl/T315I = Ba/F3 Bcr-Abl/T315I (Homo sapiens, UniProt P00519, T315I, cells depend on it)
Description: as §1, §2, §3, §4

Ba/F3 Bcr-Abl/E255K = biological target: T2, Ba/F3 Bcr-Abl/E255K (Homo sapiens, UniProt P00519, E255K, cells depend on it); experiment: CCK-8 assay, Ba/F3 Bcr-Abl/E255K; type: cell-based
T2 construct: fused on or other part: P11274 (Breakpoint cluster region protein)

Ba/F3 Bcr-Abl/E255V = biological target: T3, Ba/F3 Bcr-Abl/E255V (Homo sapiens, UniProt P00519, E255V, cells depend on it); experiment: CCK-8 assay, Ba/F3 Bcr-Abl/E255V; type: cell-based
T3 construct: fused on or other part: P11274 (Breakpoint cluster region protein)

Ba/F3 Bcr-Abl/F317L = biological target: T4, Ba/F3 Bcr-Abl/F317L (Homo sapiens, UniProt P00519, F317L, cells depend on it); experiment: CCK-8 assay, Ba/F3 Bcr-Abl/F317L; type: cell-based
T4 construct: fused on or other part: P11274 (Breakpoint cluster region protein)

Ba/F3 Bcr-Abl/F359V = biological target: T5, Ba/F3 Bcr-Abl/F359V (Homo sapiens, UniProt P00519, F359V, cells depend on it); experiment: CCK-8 assay, Ba/F3 Bcr-Abl/F359V; type: cell-based
T5 construct: fused on or other part: P11274 (Breakpoint cluster region protein)

Ba/F3 Bcr-Abl/H396P = biological target: T6, Ba/F3 Bcr-Abl/H396P (Homo sapiens, UniProt P00519, H396P, cells depend on it); experiment: CCK-8 assay, Ba/F3 Bcr-Abl/H396P; type: cell-based
T6 construct: fused on or other part: P11274 (Breakpoint cluster region protein)

Ba/F3 Bcr-Abl/H396R = biological target: T7, Ba/F3 Bcr-Abl/H396R (Homo sapiens, UniProt P00519, H396R, cells depend on it); experiment: CCK-8 assay, Ba/F3 Bcr-Abl/H396R; type: cell-based
T7 construct: fused on or other part: P11274 (Breakpoint cluster region protein)

Ba/F3 Bcr-Abl/M244V = biological target: T8, Ba/F3 Bcr-Abl/M244V (Homo sapiens, UniProt P00519, M244V, cells depend on it); experiment: CCK-8 assay, Ba/F3 Bcr-Abl/M244V; type: cell-based
T8 construct: fused on or other part: P11274 (Breakpoint cluster region protein)

Ba/F3 Bcr-Abl/M351T = biological target: T9, Ba/F3 Bcr-Abl/M351T (Homo sapiens, UniProt P00519, M351T, cells depend on it); experiment: CCK-8 assay, Ba/F3 Bcr-Abl/M351T; type: cell-based
T9 construct: fused on or other part: P11274 (Breakpoint cluster region protein)

Ba/F3 Bcr-Abl/Q252H = biological target: T10, Ba/F3 Bcr-Abl/Q252H (Homo sapiens, UniProt P00519, Q252H, cells depend on it); experiment: CCK-8 assay, Ba/F3 Bcr-Abl/Q252H; type: cell-based
T10 construct: fused on or other part: P11274 (Breakpoint cluster region protein)

Ba/F3 Bcr-Abl/Y253F = biological target: T11, Ba/F3 Bcr-Abl/Y253F (Homo sapiens, UniProt P00519, Y253F, cells depend on it); experiment: CCK-8 assay, Ba/F3 Bcr-Abl/Y253F; type: cell-based
T11 construct: fused on or other part: P11274 (Breakpoint cluster region protein)

Ba/F3 Bcr-Abl/Y253H = biological target: T12, Ba/F3 Bcr-Abl/Y253H (Homo sapiens, UniProt P00519, Y253H, cells depend on it); experiment: CCK-8 assay, Ba/F3 Bcr-Abl/Y253H; type: cell-based
T12 construct: fused on or other part: P11274 (Breakpoint cluster region protein)

[1] = mouse, ba/f3 bcr-abl/t315i, 72 h
[2] = read-out: Inhibitory concentration (IC50), Ba/F3 Bcr-Abl/T315I, CCK-8, 72 h, imatinib mesylate resistant, Table 4
[3] = CCK-8, 72 h, imatinib mesylate sensitive K562

| GI50 (Ba/F3 Bcr-Abl/WT) | GI50 (Ba/F3 Bcr-Abl/T315I; [1]) | GI50 (Ba/F3 Bcr-Abl/T315I; [2]) | GI50 (Ba/F3 Bcr-Abl/E255K; mouse, 72 h) | GI50 (Ba/F3 Bcr-Abl/E255V; mouse, 72 h) | GI50 (Ba/F3 Bcr-Abl/F317L; mouse, 72 h) | GI50 (Ba/F3 Bcr-Abl/F359V; mouse, 72 h) | GI50 (Ba/F3 Bcr-Abl/H396P; mouse, 72 h) | GI50 (Ba/F3 Bcr-Abl/H396R; mouse, 72 h) | GI50 (Ba/F3 Bcr-Abl/M244V; mouse, 72 h) | GI50 (Ba/F3 Bcr-Abl/M351T; mouse, 72 h) | GI50 (Ba/F3 Bcr-Abl/Q252H; mouse, 72 h) | GI50 (Ba/F3 Bcr-Abl/Y253F; mouse, 72 h) | GI50 (Ba/F3 Bcr-Abl/Y253H; mouse, 72 h) | Compound | IC50 (K562; Homo sapiens, K562, 72 h) | IC50 (K562; [3]) | further results |
| --- | --- | --- | --- | --- | --- | --- | --- | --- | --- | --- | --- | --- | --- | --- | --- | --- | --- |
| > 100 µM | > 100 µM | > 100 µM | > 100 µM | > 100 µM | > 100 µM | > 100 µM | > 100 µM | > 100 µM | > 100 µM | > 100 µM | > 100 µM | > 100 µM | > 100 µM | O=C(O)/C=C/c1ccc(O)c(O)c1 [Compound 1, 3-(3,4-Dihydroxy-phenyl)-acrylic acid [caffeic acid]] | > 100 µM |  |  |
| 2.4 ± 0.8 µM | 0.6 µM | 0.7 ± 0.1 µM | 2.9 µM | 3.4 µM | 1.6 µM | 2.5 µM | 5.6 µM | 1.1 µM | 3 µM | 2.2 µM | 1.7 µM | 1.7 µM | 3.3 µM | CCCOC(=O)C=Cc1ccc(O)c(O)c1 [Compound 5, 3-(3,4-Dihydroxy-phenyl)-acrylic acid n-propyl ester] | 13.5 ± 2.1 µM |  |  |
| 2.3 ± 1.1 µM | 2 µM | 1.7 ± 1.1 µM | 5.1 µM | 9.9 µM | 11.3 µM | 14.6 µM | 10.8 µM | 7 µM | 9.8 µM | 5.1 µM | 5.9 µM | 5.2 µM | 13.3 µM | CC(C)OC(=O)C=Cc1ccc(O)c(O)c1 [Compound 6, 3-(3,4-Dihydroxy-phenyl)-acrylic acid i-propyl ester] | 16.5 ± 2.1 µM |  |  |
| 40.6 ± 16.4 µM |  | 43.1 ± 27.9 µM |  |  |  |  |  |  |  |  |  |  |  | CCN1CCN(C(=O)C=Cc2ccc(O)c(O)c2)CC1 [Compound 9, 3-(3,4-Dihydroxy-phenyl)-1-(4-ethyl-piperazin-1-yl)-propenone] |  | 59.5 µM |  |
| 27 ± 8.5 µM |  | 26.6 ± 6.5 µM |  |  |  |  |  |  |  |  |  |  |  | O=C(/C=C/c1ccc(O)c(O)c1)N1CCN(c2ccccc2)CC1 [Compound 13, (E)-3-(3,4-dihydroxy-phenyl)-1-(4-phenylpiperazin-1-yl)-propenone] |  | 33.5 µM |  |

Second part, the compound before the results:

| Compound | GI50 (Ba/F3 Bcr-Abl/WT) | GI50 (Ba/F3 Bcr-Abl/T315I; [1]) | GI50 (Ba/F3 Bcr-Abl/T315I; [2]) | GI50 (Ba/F3 Bcr-Abl/E255K; mouse, 72 h) | GI50 (Ba/F3 Bcr-Abl/E255V; mouse, 72 h) | GI50 (Ba/F3 Bcr-Abl/F317L; mouse, 72 h) | GI50 (Ba/F3 Bcr-Abl/F359V; mouse, 72 h) | GI50 (Ba/F3 Bcr-Abl/H396P; mouse, 72 h) | GI50 (Ba/F3 Bcr-Abl/H396R; mouse, 72 h) | GI50 (Ba/F3 Bcr-Abl/M244V; mouse, 72 h) | GI50 (Ba/F3 Bcr-Abl/M351T; mouse, 72 h) | GI50 (Ba/F3 Bcr-Abl/Q252H; mouse, 72 h) | GI50 (Ba/F3 Bcr-Abl/Y253F; mouse, 72 h) | GI50 (Ba/F3 Bcr-Abl/Y253H; mouse, 72 h) | IC50 (K562; Homo sapiens, K562, 72 h) | IC50 (K562; [3]) | further results |
| --- | --- | --- | --- | --- | --- | --- | --- | --- | --- | --- | --- | --- | --- | --- | --- | --- | --- |
| CCOC(=O)C=Cc1ccc(O)c(O)c1 [Compound 3, 3-(3,4-Dihydroxy-phenyl)-acrylic acid ethyl ester] | 3.3 ± 0.9 µM | 1.1 µM | 2.3 ± 0.9 µM | 6.7 µM | 10.2 µM | 12.3 µM | 13.4 µM | 16.6 µM | 8.6 µM | 15.2 µM | 8.7 µM | 8.4 µM | 6.4 µM | 13.2 µM | 11.8 ± 8.8 µM |  |  |
| O=C(C=Cc1ccc(O)c(O)c1)N1CCN(Cc2ccccc2)CC1 [Compound 10, 1-(4-Benzyl-piperazin-1-yl) 3-(3,4-dihydroxy-phenyl)-propenone] | 2.8 ± 0.4 µM |  | 2.5 ± 1.5 µM |  |  |  |  |  |  |  |  |  |  |  |  | 18 µM | GI50 (Ba/F3 Bcr-Abl/T315I; ba/f3 bcr-abl/t315i): 3.1 µM; GI50 (Ba/F3 Bcr-Abl/E255K): 2.4 µM; GI50 (Ba/F3 Bcr-Abl/E255V): 2.1 µM; GI50 (Ba/F3 Bcr-Abl/F317L): 1.2 µM; GI50 (Ba/F3 Bcr-Abl/F359V): 2.6 µM; GI50 (Ba/F3 Bcr-Abl/H396P): 3.7 µM; GI50 (Ba/F3 Bcr-Abl/H396R): 1 µM; GI50 (Ba/F3 Bcr-Abl/M244V): 1.3 µM; GI50 (Ba/F3 Bcr-Abl/M351T): 2.2 µM; GI50 (Ba/F3 Bcr-Abl/Q252H): 1.5 µM; GI50 (Ba/F3 Bcr-Abl/Y253F): 1.1 µM; GI50 (Ba/F3 Bcr-Abl/Y253H): 2.5 µM |
| CN1CCC(N2CCN(C(=O)/C=C/c3ccc(O)c(O)c3)CC2)CC1 [Compound 12, (E)-3-(3,4-dihydroxy-phenyl)-1-[4-(1-methyl-piperidin-4-yl)piperazin-1-yl]-propenone] | > 30 µM |  | > 30 µM |  |  |  |  |  |  |  |  |  |  |  |  | > 30 µM |  |
| CC(C)NC(=O)/C=C/c1ccc(O)c(O)c1 [Compound 18, (E)-3-(3,4-dihydroxy-phenyl)-N-isopropyl-acrylamide] | 19.4 ± 8.8 µM |  | 9.5 ± 4.1 µM |  |  |  |  |  |  |  |  |  |  |  | 32.1 µM |  |  |
| O=C(C=Cc1ccc(O)c(O)c1)N1CCC(Cc2ccccc2)CC1 [Compound 19, 1-(4-Benzyl-piperidin-1-yl)-3-(3,4-dihydroxy-phenyl)-propenone] | 4.2 ± 1.3 µM |  | 2.7 ± 0.5 µM |  |  |  |  |  |  |  |  |  |  |  |  | 5.7 µM | GI50 (Ba/F3 Bcr-Abl/T315I; ba/f3 bcr-abl/t315i): 2.1 µM; GI50 (Ba/F3 Bcr-Abl/E255K): 1.5 µM; GI50 (Ba/F3 Bcr-Abl/E255V): 0.8 µM; GI50 (Ba/F3 Bcr-Abl/F317L): 1.1 µM; GI50 (Ba/F3 Bcr-Abl/F359V): 2.4 µM; GI50 (Ba/F3 Bcr-Abl/H396P): 2.8 µM; GI50 (Ba/F3 Bcr-Abl/H396R): 1.4 µM; GI50 (Ba/F3 Bcr-Abl/M244V): 1 µM; GI50 (Ba/F3 Bcr-Abl/M351T): 2.1 µM; GI50 (Ba/F3 Bcr-Abl/Q252H): 1.1 µM; GI50 (Ba/F3 Bcr-Abl/Y253F): 1 µM; GI50 (Ba/F3 Bcr-Abl/Y253H): 1 µM |

Source: patent US20100010002A1, “ANTICANCER USE OF CAFFEIC ACID AND ITS DERIVATIVES” (Piramal Life Sciences Limited, priority 2006, published 2010)
